BindingDB's records for doi:10.7270/Q2PN942B (Vanderbilt Screening Center for GPCRs, Ion Channels and …, 2009)

target: T1, Solute carrier family 12 member 5 (Homo sapiens, UniProt Q9H2X9); assay: modulation of KCC2 K-Cl transport – cell-based, assay 2, dose response (AID 1723); details: not given
T1 sequence (Q9H2X9 whole entry): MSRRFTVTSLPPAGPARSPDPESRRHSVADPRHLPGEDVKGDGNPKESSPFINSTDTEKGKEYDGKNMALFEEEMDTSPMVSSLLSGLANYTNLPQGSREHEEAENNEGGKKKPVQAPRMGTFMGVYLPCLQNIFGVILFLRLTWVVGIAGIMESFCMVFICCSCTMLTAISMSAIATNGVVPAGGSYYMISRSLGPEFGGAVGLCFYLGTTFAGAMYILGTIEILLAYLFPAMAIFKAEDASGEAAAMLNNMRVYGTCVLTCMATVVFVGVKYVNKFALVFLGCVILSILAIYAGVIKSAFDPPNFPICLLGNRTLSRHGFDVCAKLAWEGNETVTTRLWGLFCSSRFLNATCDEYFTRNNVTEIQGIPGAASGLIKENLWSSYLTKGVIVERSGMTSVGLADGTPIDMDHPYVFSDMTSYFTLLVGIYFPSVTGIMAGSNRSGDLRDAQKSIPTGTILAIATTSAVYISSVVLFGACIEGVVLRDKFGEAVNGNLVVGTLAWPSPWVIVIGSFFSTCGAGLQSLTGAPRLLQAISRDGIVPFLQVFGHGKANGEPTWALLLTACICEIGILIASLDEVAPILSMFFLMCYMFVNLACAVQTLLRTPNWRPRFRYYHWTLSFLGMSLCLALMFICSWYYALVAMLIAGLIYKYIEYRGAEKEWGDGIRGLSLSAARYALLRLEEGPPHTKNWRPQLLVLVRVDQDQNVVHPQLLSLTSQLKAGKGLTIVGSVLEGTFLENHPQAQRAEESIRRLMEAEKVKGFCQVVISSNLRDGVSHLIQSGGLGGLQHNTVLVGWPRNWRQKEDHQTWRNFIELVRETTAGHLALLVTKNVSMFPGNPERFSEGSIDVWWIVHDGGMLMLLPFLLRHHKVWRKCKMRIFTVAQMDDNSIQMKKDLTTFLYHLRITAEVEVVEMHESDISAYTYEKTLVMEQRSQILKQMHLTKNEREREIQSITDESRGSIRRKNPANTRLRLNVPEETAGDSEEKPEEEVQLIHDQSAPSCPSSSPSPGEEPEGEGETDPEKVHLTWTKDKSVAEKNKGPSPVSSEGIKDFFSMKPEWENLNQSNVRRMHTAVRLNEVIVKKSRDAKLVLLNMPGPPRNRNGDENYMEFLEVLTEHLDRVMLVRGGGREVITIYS

SMILES	EC50 [µM]
CC(=O)c1cccc(NC(=S)NC(=O)c2ccc(C)cc2)c1 [MLS000687464]	1.86
CCOc1ccc2nc(Sc3cc(O)n(-c4cccc(OC)c4)c3O)sc2c1 [3-(6-Ethoxy-benzothiazol-2-ylsulfanyl)-1-(3-methoxy-phenyl)-pyrrolidine-2,5-dione]	14.2
NC(=S)NN=C1C(=O)N(Cc2ccc(F)cc2)c2ccccc21 [1-[(Z)-[1-[(4-fluorophenyl)methyl]-2-oxidanylidene-indol-3-ylidene]amino]thiourea]	2.29
N=C1SCC(=O)N1c1ncc(Cc2cccc(Cl)c2)s1 [2-azanylidene-3-[5-[(3-chlorophenyl)methyl]-1,3-thiazol-2-yl]-1,3-thiazolidin-4-one]	2.57
Cc1nn(-c2nc3ccccc3[nH]2)c(N)c1-c1ccccc1 [MLS000063763]	1.86
Cc1[nH]n2c(=O)cc(C(C)C)nc2c1-c1ccccc1	12.9
S=c1nc(-c2ccc3c(c2)CCO3)cc[nH]1	8.12
COC(=O)c1sccc1NC(=S)OC [3-(methoxycarbothioylamino)thiophene-2-carboxylic acid methyl ester]	1.74
COC(=O)[C@@H](NC(=O)O[C@@H]1C(=O)c2ccc(OC)cc2O[C@H]1c1cccc(C(F)(F)F)c1)C(C)C [(2S)-2-[[(2S,3S)-4-keto-7-methoxy-2-[3-(trifluoromethyl)phenyl]chroman-3-yl]oxycarbonylamino]-3-methyl-butyric acid methyl ester]	0.996
O=C(NC(=S)Nc1nc(-c2cccc([N+](=O)[O-])c2)cs1)c1ccccc1Cl [2-chloranyl-N-[[4-(3-nitrophenyl)-1,3-thiazol-2-yl]carbamothioyl]benzamide]	244
O=c1c2ccccc2[nH]c(=S)n1CCN1CCC(=C(c2ccc(F)cc2)c2ccc(F)cc2)CC1 [SMR000058550]	25.5
CCOc1[nH]n(-c2ccccc2)c(=O)c1C=Nc1ccc(F)cc1F [(4E)-4-[[[2,4-bis(fluoranyl)phenyl]amino]methylidene]-5-ethoxy-2-phenyl-pyrazol-3-one]	5.86
O=[N+]([O-])c1ccccc1C=C[CH+][N-]n1c(-c2ccc(Cl)cc2)n[nH]c1=S [MLS000555506]	53.1
S=C(NCCc1ccccc1)NN=Cc1cccc(Cl)c1Cl [1-[(2,3-dichlorobenzylidene)amino]-3-phenethyl-thiourea]	11.2
Fc1cccc(F)c1C=NNC(=S)Nc1cccnc1 [1-[(2,6-difluorobenzylidene)amino]-3-(3-pyridyl)thiourea]	14
CNc1ccc2oc(C[C@H]3O[C@@]4(CC[C@H]3C)O[C@H]([C@H](C)C(=O)c3ccc[nH]3)[C@H](C)C[C@H]4C)nc2c1C(=O)O [MLS001056783]	15.4
COc1cc(NC(=S)NC(=O)c2ccco2)ccc1NC(=O)C(C)C [MLS000672338]	14.1
O=[N+]([O-])c1ccc(-c2cn(-c3ccccc3F)c(=S)[nH]2)cc1	0.548
Oc1ccccc1CN=Nc1nc2ccccc2o1 [(6E)-6-[(1,3-benzoxazol-2-ylhydrazo)methylidene]-1-cyclohexa-2,4-dienone]	45.3

same assay, conditions: inactive by the depositor's call

SMILES	EC50 [µM]
Cc1noc(/C=C/N(C)C)c1S(=O)(=O)N(C)CC(=O)NC1CCCCC1 [MLS000047204]	0.61
Cc1ccc(Cn2c(SCC(=O)Nc3cc(C)on3)nc3ccccc3c2=O)cc1 [2-[[4-keto-3-(4-methylbenzyl)quinazolin-2-yl]thio]-N-(5-methylisoxazol-3-yl)acetamide]	138
